These are literature values, as cited in US20210299077A1, “LIPOSOMAL REDUCED GLUTATHIONE (LRG) IN COMBINATION WITH IVERMECTIN FOR THE TREATMENT OF COVID-19” (Your Energy Systems, LLC, priority 2020, published 2021).

For data set [1], the system named is SARS-CoV. Conditions: mouse SARS-CoV model.
Data set [2] relates to COVID-19. The settings on record: COVID-19 patients.
The conditions of data set [3]: single oral dose of 2000 mg.
The test system of data set [4] is SARS-CoV. The settings on record: in vitro studies.
In data set [5] the test system is SARS-CoV-2.
Data set [6] relates to influenza viruses. Conditions: 300 mg twice a day for 5 days.
The conditions of data set [7]: patients receiving remdesivir.

The structures appear in SMILES notation. Read-outs that look alike come from different tables or passages of the source.

In the case of `CCN(CC)CCCC(C)Nc1ccnc2cc(Cl)ccc12` (stereo not shown) [chloroquine], the “efficacy in inhibiting viral replication” value in data set [1] is “did not show efficacy”. The “clinical and virologic outcome versus a comparison group” value in data set [2] was “clinical and virologic benefit”.

On to `O=C(Nc1ccc([N+](=O)[O-])cc1Cl)c1cc(Cl)ccc1O` [niclosamide], for which the aqueous solubility result was “limited aqueous solubility”. Besides, the maximum serum concentration in data set [3] is 0.25 to 6.0 µg/mL. In data set [3] (same range in μM), the maximum serum concentration was 0.76 to 18.3 µM. Moreover, in data set [4], the “inhibition of SARS-CoV replication” value is given as “able to inhibit SARS-CoV replication at a micromolar concentration”.

On to `CCN(CCO)CCCC(C)Nc1ccnc2cc(Cl)ccc12` (stereo not shown) [hydroxychloroquine], for which the “in-vitro activity against SARS-CoV-2” value in data set [5] is listed as “relatively higher potency against SARS-CoV-2”.

As to `CC(=O)Oc1ccccc1C(=O)Nc1ncc([N+](=O)[O-])s1` [NTZ, Nitazoxanide], in data set [6], the “symptoms and infectious viral load” value was “reduction of symptoms and infectious viral load”; the tolerability entry is “well tolerated”.

On to `CCC(CC)COC(=O)[C@H](C)N[P@](=O)(OC[C@H]1O[C@@](C#N)(c2ccc3c(N)ncnn23)[C@H](O)[C@@H]1O)Oc1ccccc1` [Remdesivir], for which the adverse events entry in data set [7] is “nausea, vomiting, rectal bleeding, and elevated liver enzymes”.
